Data published in ChEMBL document CHEMBL6109122 (J Med Chem, 2025).
Calls of active or inactive are those of the source. No cut-off for these calls is given here.

How the values were obtained:
[1] = target: T1, Protein cereblon/Non-receptor tyrosine-protein kinase TYK2 (Homo sapiens, UniProt P29597+Q96SW2); assay: PROTAC activity at CRBN/TYK2 in human Jurkat cells assessed as induction of degradation of TYK2 at 10 nM measured after 10 hrs by Western blot analysis relative to control; assay type: cell-based
Target sequence in this assay (P29597 whole entry, looked up): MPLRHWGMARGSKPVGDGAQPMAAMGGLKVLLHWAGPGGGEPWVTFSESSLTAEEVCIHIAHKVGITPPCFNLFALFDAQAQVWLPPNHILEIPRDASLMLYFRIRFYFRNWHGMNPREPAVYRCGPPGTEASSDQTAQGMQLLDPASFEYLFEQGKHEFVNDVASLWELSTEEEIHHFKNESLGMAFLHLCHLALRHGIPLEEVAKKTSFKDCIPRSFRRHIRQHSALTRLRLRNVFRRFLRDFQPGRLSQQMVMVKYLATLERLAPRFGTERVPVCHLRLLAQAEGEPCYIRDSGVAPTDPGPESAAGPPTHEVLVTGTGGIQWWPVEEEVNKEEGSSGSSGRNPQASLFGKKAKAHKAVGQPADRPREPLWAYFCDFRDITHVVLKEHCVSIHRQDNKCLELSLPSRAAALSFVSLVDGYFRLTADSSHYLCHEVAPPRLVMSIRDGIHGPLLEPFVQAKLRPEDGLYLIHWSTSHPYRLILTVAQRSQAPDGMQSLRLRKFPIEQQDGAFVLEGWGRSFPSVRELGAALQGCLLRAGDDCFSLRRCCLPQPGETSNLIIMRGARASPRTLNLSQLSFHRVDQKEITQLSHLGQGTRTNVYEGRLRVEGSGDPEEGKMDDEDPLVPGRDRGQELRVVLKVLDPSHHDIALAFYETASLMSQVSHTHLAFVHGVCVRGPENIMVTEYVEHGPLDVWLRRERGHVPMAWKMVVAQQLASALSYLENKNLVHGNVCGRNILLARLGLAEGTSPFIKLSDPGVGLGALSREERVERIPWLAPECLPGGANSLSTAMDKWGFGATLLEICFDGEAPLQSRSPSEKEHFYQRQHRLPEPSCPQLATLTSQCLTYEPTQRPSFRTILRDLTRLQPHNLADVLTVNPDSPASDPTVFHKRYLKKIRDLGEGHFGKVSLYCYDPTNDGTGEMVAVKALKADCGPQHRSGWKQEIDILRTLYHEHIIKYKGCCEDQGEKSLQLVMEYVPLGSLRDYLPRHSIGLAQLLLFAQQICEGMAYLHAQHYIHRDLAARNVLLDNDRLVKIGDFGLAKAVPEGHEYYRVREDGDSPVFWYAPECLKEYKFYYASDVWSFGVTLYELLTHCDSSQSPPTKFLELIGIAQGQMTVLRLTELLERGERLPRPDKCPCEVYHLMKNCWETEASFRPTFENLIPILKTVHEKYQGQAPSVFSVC
Target sequence in this assay (Q96SW2 whole entry, looked up): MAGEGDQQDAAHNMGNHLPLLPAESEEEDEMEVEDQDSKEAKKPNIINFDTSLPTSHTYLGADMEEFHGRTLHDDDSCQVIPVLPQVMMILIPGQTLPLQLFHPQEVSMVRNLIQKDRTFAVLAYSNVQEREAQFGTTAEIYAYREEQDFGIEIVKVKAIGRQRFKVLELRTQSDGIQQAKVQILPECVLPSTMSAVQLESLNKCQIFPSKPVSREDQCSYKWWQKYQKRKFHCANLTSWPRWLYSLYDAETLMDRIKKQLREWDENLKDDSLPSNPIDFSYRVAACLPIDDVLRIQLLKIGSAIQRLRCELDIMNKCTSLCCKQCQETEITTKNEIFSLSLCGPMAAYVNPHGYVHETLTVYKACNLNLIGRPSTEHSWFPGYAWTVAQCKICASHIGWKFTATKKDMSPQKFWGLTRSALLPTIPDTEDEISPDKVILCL

[2] = target: T1, Protein cereblon/Non-receptor tyrosine-protein kinase TYK2; assay: PROTAC activity at CRBN/TYK2 in human Jurkat cells assessed as induction of degradation of TYK2 at 100 nM measured after 10 hrs by Western blot analysis relative to control; assay type: cell-based
Target sequence in this assay (P29597 whole entry, looked up): as the sequence (P29597 whole entry, looked up) above
Target sequence in this assay (Q96SW2 whole entry, looked up): as the sequence (Q96SW2 whole entry, looked up) above

[3] = target: T1, Protein cereblon/Non-receptor tyrosine-protein kinase TYK2; assay: PROTAC activity at CRBN/TYK2 in human Jurkat cells assessed as induction of degradation of TYK2 at 1 nM measured after 10 hrs by Western blot analysis relative to control; assay type: cell-based
Target sequence in this assay (P29597 whole entry, looked up): as the sequence (P29597 whole entry, looked up) above
Target sequence in this assay (Q96SW2 whole entry, looked up): as the sequence (Q96SW2 whole entry, looked up) above

[4] = Metabolic stability in mouse liver microsomes assessed as half life measured up to 120 mins by LC-MS/MS analysis; assay type: ADME, Microsome
[5] = Apparent permeability of the compound in human Caco-2 cells at 10 uM measured up to 120 min by LC-MS/MS analysis; assay type: ADME, cell-based
[6] = Inhibition of TYK2 dependent STAT3 phosphorylation in IL-6 stimulated human PBMC cells preincubated for 60 mins followed by IL-6 stimulation and measured after 60 mins by FACS assay; assay type: cell-based
[7] = Inhibition of TYK2 dependent STAT3 phosphorylation in IL-12 stimulated human PBMC cells preincubated for 60 mins followed by IL-12 stimulation and measured after 60 mins by FACS assay; assay type: cell-based
[8] = Metabolic stability in mouse liver microsomes assessed as intrinsic clearance measured up to 120 mins by LC-MS/MS analysis; assay type: ADME, Microsome; conditions: read-out: CLH
[9] = target: T1, Protein cereblon/Non-receptor tyrosine-protein kinase TYK2; assay: PROTAC activity at CRBN/TYK2 in human Jurkat cells assessed as induction of degradation of TYK2 at 100 ug/ml measured after 10 hrs by Western blot analysis; assay type: cell-based; conditions: dose 100.0 µg/ml
Target sequence in this assay (P29597 whole entry, looked up): as the sequence (P29597 whole entry, looked up) above
Target sequence in this assay (Q96SW2 whole entry, looked up): as the sequence (Q96SW2 whole entry, looked up) above

[10] = Half life in male ICR mouse at 1 mg/kg, iv measured up to 24 hrs by LC-MS/MS analysis; assay type: ADME, organism-based; conditions: in vivo
[11] = Tmax in male ICR mouse at 1 mg/kg, iv measured up to 24 hrs by LC-MS/MS analysis; assay type: ADME, organism-based; conditions: in vivo
[12] = Cmax in male ICR mouse at 1 mg/kg, iv measured up to 24 hrs by LC-MS/MS analysis; assay type: ADME, organism-based; conditions: in vivo
[13] = AUC (0 to t) in male ICR mouse at 1 mg/kg, iv measured up to 24 hrs by LC-MS/MS analysis; assay type: ADME, organism-based; conditions: in vivo
[14] = AUC (0 to infinity) in male ICR mouse at 1 mg/kg, iv measured up to 24 hrs by LC-MS/MS analysis; assay type: ADME, organism-based; conditions: in vivo
[15] = Half life in male ICR mouse at 10 mg/kg, po measured up to 24 hrs by LC-MS/MS analysis; assay type: ADME, organism-based; conditions: in vivo
[16] = Tmax in male ICR mouse at 10 mg/kg, po measured up to 24 hrs by LC-MS/MS analysis; assay type: ADME, organism-based; conditions: in vivo
[17] = Cmax in male ICR mouse at 10 mg/kg, po measured up to 24 hrs by LC-MS/MS analysis; assay type: ADME, organism-based; conditions: in vivo
[18] = AUC (0 to t) in male ICR mouse at 10 mg/kg, po measured up to 24 hrs by LC-MS/MS analysis; assay type: ADME, organism-based; conditions: in vivo
[19] = AUC (0 to infinity) in male ICR mouse at 10 mg/kg, po measured up to 24 hrs by LC-MS/MS analysis; assay type: ADME, organism-based; conditions: in vivo
[20] = Oral bioavailability in male ICR mouse at 10 mg/kg measured up to 24 hrs by LC-MS/MS analysis; assay type: ADME, organism-based; conditions: in vivo
[21] = target: T1, Protein cereblon/Non-receptor tyrosine-protein kinase TYK2; assay: PROTAC activity at CRBN/TYK2 in human HaCaT cells assessed as induction of degradation of TYK2 measured after 10 hrs by Western blot analysis; assay type: cell-based; conditions: dose 1-100 nM, tested as the 2H-labelled form
Target sequence in this assay (P29597 whole entry, looked up): as the sequence (P29597 whole entry, looked up) above
Target sequence in this assay (Q96SW2 whole entry, looked up): as the sequence (Q96SW2 whole entry, looked up) above

[22] = target: T1, Protein cereblon/Non-receptor tyrosine-protein kinase TYK2; assay: PROTAC activity at CRBN/TYK2 in human Jurkat cells assessed as induction of degradation of TYK2 measured after 10 hrs by Western blot analysis; assay type: cell-based
Target sequence in this assay (P29597 whole entry): as the sequence (P29597 whole entry, looked up) above
Target sequence in this assay (Q96SW2 whole entry): as the sequence (Q96SW2 whole entry, looked up) above

Structure (SMILES)	Activity [1]	Activity [2]	Activity [3]	other results
CNC(=O)c1cnc(Nc2ccc(C(=O)N3CCC4(CC3)CCN(c3ccc5c(c3)C(=O)N(C3CCC(=O)NC3=O)C5=O)CC4)cn2)cc1Nc1cccc(-c2ncc(F)cn2)c1OC (centres undefined)	65%	13%	inactive	
CNC(=O)c1cnc(NC2CCN(CC3CCN(c4ccc5c(c4)C(=O)N(C4CCC(=O)NC4=O)C5=O)CC3)CC2)cc1Nc1cccc(-c2ncc(F)cn2)c1OC (centres undefined)				half-life [4]: 62 min; Papp at 2 h, 10 µM [5]: < 0.1 ×10⁻⁶ cm/s
CNC(=O)c1cnc(Nc2ccc(C(=O)NCCCCCCNc3ccc4c(c3)C(=O)N(C3CCC(=O)NC3=O)C4=O)cn2)cc1Nc1cccc(-c2ncc(F)cn2)c1OC (centres undefined)	46%	62%		
[2H]C([2H])([2H])NC(=O)c1nnc(NC(=O)C2CC2)cc1Nc1cccc(-c2ncn(C)n2)c1OC [DEUCRAVACITINIB]				IC50 [6]: 405 nM; IC50 [7]: 7.4 nM
CNC(=O)c1cnc(Nc2ccc(C(=O)NCCCCNc3cccc4c3C(=O)N(C3CCC(=O)NC3=O)C4=O)cn2)cc1Nc1cccc(-c2ncc(F)cn2)c1OC (centres undefined)	26%	82%		half-life [4]: 24 min; CLint scaled [8]: 228 mL/min/kg
CNC(=O)c1cnc(Nc2ccc(C(=O)N3CCN(C4CCN(c5ccc6c(c5)C(=O)N(C5CCC(=O)NC5=O)C6=O)CC4)CC3)cn2)cc1Nc1cccc(-c2ncc(F)cn2)c1OC (centres undefined)	17%	7%	inactive	
C[C@@H]1C[C@@H]([C@H](O)CC2CC(=O)NC(=O)C2)C(=O)[C@@H](C)C1				Activity [9]: Active
CNC(=O)c1cnc(Nc2ccc(C(=O)N3CC(N4CCN(c5ccc6c(c5)C(=O)N(C5CCC(=O)NC5=O)C6=O)CC4)C3)cn2)cc1Nc1cccc(-c2ncc(F)cn2)c1OC (centres undefined)	77%	67%	44%	
CNC(=O)c1cnc(Nc2ccc(C(=O)NCCOCCNc3cccc4c3C(=O)N(C3CCC(=O)NC3=O)C4=O)cn2)cc1Nc1cccc(-c2ncc(F)cn2)c1OC (centres undefined)	32%	66%		
CNC(=O)c1cnc(Nc2ccc(C(=O)NCCCCCNc3ccc4c(c3)C(=O)N(C3CCC(=O)NC3=O)C4=O)cn2)cc1Nc1cccc(-c2ncc(F)cn2)c1OC (centres undefined)	88%	65%		half-life [4]: 15 min; CLint scaled [8]: 365 mL/min/kg
CNC(=O)c1cnc(Nc2ccc(C(=O)NCCCCCCNc3cccc4c3C(=O)N(C3CCC(=O)NC3=O)C4=O)cn2)cc1Nc1cccc(-c2ncc(F)cn2)c1OC (centres undefined)	48%	69%		
CNC(=O)c1cnc(Nc2ccc(C(=O)N3CC4(CC(Nc5ccc6c(c5)C(=O)N(C5CCC(=O)NC5=O)C6=O)C4)C3)cn2)cc1Nc1cccc(-c2ncc(F)cn2)c1OC (centres undefined)	62%	48%	17%	
CNC(=O)c1cnc(Nc2ccc(C(=O)N3CCC(CN4CCN(c5ccc6c(c5)C(=O)N(C5CCC(=O)NC5=O)C6=O)CC4)CC3)cn2)cc1Nc1cccc(-c2ncc(F)cn2)c1OC (centres undefined)	78%	inactive	2%	
CNC(=O)c1cnc(Nc2ccc(C(=O)N(C)C3CCN(c4ccc5c(c4)C(=O)N(C4CCC(=O)NC4=O)C5=O)CC3)cn2)cc1Nc1cccc(-c2ncc(F)cn2)c1OC (centres undefined)				half-life [4]: 41 min; Papp at 2 h, 10 µM [5]: 0.26 ×10⁻⁶ cm/s; half-life [10]: 39.6 min; Tmax [11]: 4.8 min; Cmax [12]: 1490 ng/mL; AUC(0-t) at 24 h [13]: 712 ng·h/mL; AUC(0-inf) [14]: 717 ng·h/mL; half-life [15]: 72 min; Tmax [16]: 18 min; Cmax [17]: 124 ng/mL; AUC(0-t) at 24 h [18]: 159 ng·h/mL; AUC(0-inf) [19]: 163 ng·h/mL; bioavailability [20]: 2.2%
CNC(=O)c1cnc(Nc2ccc(C(=O)N3CC4(C3)CN(c3ccc5c(c3)C(=O)N(C3CCC(=O)NC3=O)C5=O)C4)cn2)cc1Nc1cccc(-c2ncc(F)cn2)c1OC (centres undefined)	83%	68%	46%	half-life [4]: 104 min; CLint scaled [8]: 53 mL/min/kg
CNC(=O)c1cnc(Nc2ccc(C(=O)NCCCCCCCCNc3cccc4c3C(=O)N(C3CCC(=O)NC3=O)C4=O)cn2)cc1Nc1cccc(-c2ncc(F)cn2)c1OC (centres undefined)	72%	74%		
CNC(=O)c1cnc(Nc2ccc(C(=O)NCCNc3cccc4c3C(=O)N(C3CCC(=O)NC3=O)C4=O)cn2)cc1Nc1cccc(-c2ncc(F)cn2)c1OC (centres undefined)	12%	15%		
CNC(=O)c1cnc(Nc2ccc(C(=O)N3CC4(CCN(c5ccc6c(c5)C(=O)N(C5CCC(=O)NC5=O)C6=O)CC4)C3)cn2)cc1Nc1cccc(-c2ncc(F)cn2)c1OC (centres undefined)	69%	61%	42%	
CNC(=O)c1nnc(NC(=O)C2CC2)cc1Nc1cccc(-c2ncn(C)n2)c1OC				Activity ([1]; tested as the 2H-labelled form): inactive; Activity ([2]; tested as the 2H-labelled form): inactive; Activity [21]: inactive
CNC(=O)c1cnc(Nc2ccc(C(=O)NCCCCNc3ccc4c(c3)C(=O)N(C3CCC(=O)NC3=O)C4=O)cn2)cc1Nc1cccc(-c2ncc(F)cn2)c1OC (centres undefined)	42%	48%		
CNC(=O)c1cnc(Nc2ccc(C(=O)NCCCCCNc3cccc4c3C(=O)N(C3CCC(=O)NC3=O)C4=O)cn2)cc1Nc1cccc(-c2ncc(F)cn2)c1OC (centres undefined)	86%	94%		DC50 [22]: 0.43 nM
CNC(=O)c1cnc(Nc2ccc(C(=O)NCCCNc3cccc4c3C(=O)N(C3CCC(=O)NC3=O)C4=O)cn2)cc1Nc1cccc(-c2ncc(F)cn2)c1OC (centres undefined)	18%	21%		
CNC(=O)c1cnc(Nc2ccc(C(=O)NCCOCCOCCNc3cccc4c3C(=O)N(C3CCC(=O)NC3=O)C4=O)cn2)cc1Nc1cccc(-c2ncc(F)cn2)c1OC (centres undefined)	5%	56%		
CNC(=O)c1cnc(Nc2ccc(C(=O)N3CCC(CNc4ccc5c(c4)C(=O)N(C4CCC(=O)NC4=O)C5=O)CC3)cn2)cc1Nc1cccc(-c2ncc(F)cn2)c1OC (centres undefined)	35%	10%	7%	
